Consider one compound from article PMC11680164 (Viruses, 2024).

For data set [1] the following is noted: cited from earlier work.
A short description of data set [2]: Pharmacokinetics (plasma and lung) after single oral dose in mice. The class given is in vivo, Swiss Webster mice. The settings on record: 60 mg/kg p.o. single dose.
Setting [3] is: Swiss Webster, mouse, po, plasma.

Usually Cmax stands for the highest concentration seen after dosing. The term Tmax denotes the time at which the peak concentration occurs. Broadly, the half-life is the time needed for the level to fall by half in the phase considered. The term AUC(0-inf) denotes the area under the concentration-time curve extrapolated to infinity. One may read the AUC(0-t) as the area under the concentration-time curve up to a stated or last time point. A higher AUC(0-t) goes with high exposure. With `COC(=O)N[C@H](C(=O)N1CCC[C@H]1c1nc(-c2ccc(-c3ccc(-c4c[nH]c([C@@H]5CCCN5C(=O)[C@@H](NC(=O)OC)C(C)C)n4)cc3)cc2)c[nH]1)C(C)C` [daclatasvir], the “no-observable-effect level (NOEL)” value in data set [1] (nonhuman primates treated daily for 4–9 months) is 15 mg/kg. The tolerated dose in data set [1] (nonhuman primates) is 15 mg/kg. Also, in data set [2], the “AUC in plasma relative to lungs” value is ~5.9 fold. Further, in data set [2] (Swiss Webster, mouse, po, lung), the peak level (Cmax) was 6190 ng/g, the Tmax came to 0.67 h and the half-life is 14.7 h. In addition, in data set [2] (setting [3]), the AUC(0-inf) worked out at 103 µg·h/mL, the AUC(0-t) came out at 101 µg·h/mL, the highest level (Cmax) was 22200 ng/mL and the Tmax worked out at 1 h. For the same compound, the half-life in data set [2] (setting [3]) is 2.25 h. Besides, in data set [2] (lung), the AUClast is given as 16,932 h.ng/g, the “AUC∞” value was 19,123 h.ng/g, the “Ct (last concentration observed above the limit of quantification)” value came out at 103.46 ng/g and the Tlast is given as 16.00 h. For the same compound, the “λ (apparent elimination constant)” value in data set [2] (lung) was 0.0472 h*^−1. In data set [2] (plasma), the “Ct (last concentration observed above the limit of quantification)” value stood at 353.84 ng/mL, the Tlast was 16.00 h and the “λ (apparent elimination constant)” value came out at 0.308 h*^−1.
